Here are results for eight compounds from patent US10758620B2, “Potentiated antimicrobial agents” (SEPTEOS, priority 2014, dated 2020).

The subject of one data set is MSSA 8237. Kind of data set: Etest, staphylococci MSSA 8237. The class given is cell-based. The conditions noted are these: MSSA 8237. An excerpt: (§1) The corresponding tests are made based on the usual MIC test: the Etest® (Biomerieux) strip is deposited onto the surface of a seeded agar medium in which the booster has been incorporated. This test enables solvent effect risks, that is a possible interaction with the solvent used in vitro, to be minimised.
(§2) The control corresponds to the test made without cineol. A control is made in each solvent tested: distilled water, Tween/water and DMSO.
(§3) ED control=antibiotic alone in distilled water
(§4) DMSO control=antibiotic alone in DMSO
(§5) TE control=antibiotic alone in Tween® 80

The subject of a further data set is MRSA 10178. Kind of data set: Etest, staphylococci MRSA 10178. The class given is cell-based.
Description: as §1, §2, §3, §4, §5

Data set [1] concerns Strain 10168, methicillin resistant S. aureus (MRSA). Briefly: Resistance test (resistant mutants), Strain 10168. The class given is cell-based. The conditions noted are these: Strain 10168, DMSO, 4 times the MIC, 48 h incubation, combinations 64/100. On the procedure: (§6) After 48 h incubation, the presence or absence of colonies likely to be resistant mutants is observed.
(§7) ED control or DMSO=only distilled water or DMSO is added
(§8) Ciprofloxacine DMSO: addition of Ciprofloxacine in DMSO

For data set [2], the system named is Strain 09003, methicillin resistant S. aureus (MRSA). Kind of data set: Resistance test (resistant mutants), Strain 09003. The class given is cell-based. As to conditions: Strain 09003, DMSO, 4 times the MIC, 48 h incubation, combinations 64/100. On the procedure:
as §6, §7, §8

For a further data set, the system named is Pseudomonas Strain 08132. Kind of data set: Etest, Pseudomonas Strain 08132. The class given is cell-based.
Description: as §1, §2, §3, §4, §5

For a further data set, the system named is Pseudomonas Strain 08131. Kind of data set: Etest, Pseudomonas Strain 08131. The class given is cell-based. As to conditions: Pseudomonas, STRAIN08131, Strain 08131, read-out: MIC.
Description: as §1, §2, §3, §4, §5

In another data set the test system is E. Coli Strain 08138. Briefly: Etest, E. Coli Strain 08138. The class given is cell-based. The conditions noted are these: Escherichia coli, Strain 08138.
Description: as §1, §2, §3, §4, §5

In another data set the test system is E. Coli Strain 8150. Briefly: Etest, E. Coli Strain 8150. The conditions noted are these: Escherichia coli, Strain 8150. The class given is cell-based.
Description: as §1, §2, §3, §4, §5

The subject of another data set is Staphylococcus. Briefly: MIC measurement in agar medium (dilution test), Staph. As to conditions: Staphylococcus, read-out: MIC of the amox alone; staphylococci. The class given is cell-based. An excerpt:
Inhibitory minimum concentration measurement tests are made in a solid agar medium according to international standards in force (CLSI M7-A9 Jan 12 standards): dispersion of the compounds to be tested in a Mueller Hinton gelose. An adaptation relating to the hydrophobicity of compounds and compositions is however necessary to disperse them in the medium: dilution of the compounds in a solvent. The compounds and compositions incorporated in the agar medium can be diluted beforehand in one or more solvents (Tween® 80 diluted with water, Tween® 80 diluted with […], DMSO diluted with water). The strains are deposited onto the agar surface with a steers apparatus. In the examples, different dissolution methods for products are tested in parallel to circumvent the problems of water/solvent distribution coefficient of the molecules (antimicrobial and potentiator) whereas the bacteria grow only in the aqueous phase. The technical requirement will not intervene in in vivo tests. The same dilution methods can be implemented in a liquid medium (microplates and tubes). The same methodology is implemented with fungi. […] MIC measurement: the minimum inhibitory concentration measurement tests are made in an agar solid medium according to international standards in force (CLSI standards), according to the previously defined protocol. […] The booster contribution as compared with the MIC of the antibiotic alone is expressed in a (MIC ATB)/(MIC ATB+booster) ratio. Thereby, gains are defined: […]

The conditions of data set [3]: orally, rats; cited from earlier work.
For data set [4] the following is noted: orally, cats; cited from earlier work.
Another data set concerns candidas. Kind of data set: MIC measurement (dilution test) on yeast strains. The class given is cell-based, Candida. As to conditions: Candida; read-out: MIC of sertaconazole alone. The text has this:
Inhibitory minimum concentration measurement tests are made in a solid agar medium according to international standards in force (CLSI M7-A9 Jan 12 standards): dispersion of the compounds to be tested in a Mueller Hinton gelose. An adaptation relating to the hydrophobicity of compounds and compositions is however necessary to disperse them in the medium: dilution of the compounds in a solvent. The compounds and compositions incorporated in the agar medium can be diluted beforehand in one or more solvents (Tween® 80 diluted with water, Tween® 80 diluted with […], DMSO diluted with water). The strains are deposited onto the agar surface with a steers apparatus. In the examples, different dissolution methods for products are tested in parallel to circumvent the problems of water/solvent distribution coefficient of the molecules (antimicrobial and potentiator) whereas the bacteria grow only in the aqueous phase. The technical requirement will not intervene in in vivo tests. The same dilution methods can be implemented in a liquid medium (microplates and tubes). The same methodology is implemented with fungi. […] MIC measurement: the minimum inhibitory concentration measurement tests are made in an agar solid medium according to international standards in force (CLSI standards), according to the previously defined protocol. […] The booster contribution as compared with the MIC of the antibiotic alone is expressed in a (MIC ATB)/(MIC ATB+booster) ratio. Thereby, gains are defined: […] The yeast strains tested (n=33) belong to the […] albicans, Candida tropicalis, Candida krusei, Candida parapsilosis, Candida glabrata species.

Setting [5] is: Staphylococcus aureus, MSSA, DMSO control = antibiotic alone in DMSO, read-out: MIC.
The mark [6] stands for this setting: Staphylococcus aureus, MSSA, ED control = antibiotic alone in distilled water, read-out: MIC.
Setting [7] is: Staphylococcus aureus, MSSA, Tween water control = antibiotic alone, read-out: MIC.
Setting [8] is: DMSO control = antibiotic alone in DMSO.
[9] abbreviates: Tween water control = antibiotic alone.
Setting [10] is: ED control = antibiotic alone in distilled water.

Each structure is given as a SMILES string. In brackets after ≈: the same amount, converted by molar mass. Read-outs that look alike come from different tables or passages of the source.

As a reminder, the MIC is the smallest concentration in the dilution series that meets the test's criterion for growth inhibition. For the compound `CO[C@@]1(NC(=O)Cc2cccs2)C(=O)N2C(C(=O)O)=C(COC(N)=O)CS[C@@H]21` [Cefoxitine, reference compound], the minimal inhibitory concentration (MIC) in the data set on MSSA 8237 (setting [5]) worked out at 6 µg/mL (≈ 14 µM); in the data set on MSSA 8237 (setting [6]), 6 µg/mL (≈ 14 µM); in the data set with MSSA 8237 (setting [7]) it was 6 µg/mL (≈ 14 µM); in the data set with MRSA 10178 (Staphylococcus aureus, MRSA, MRSA 10178, DMSO control = antibiotic alone in DMSO, read-out: MIC) it was 6 µg/mL (≈ 14 µM); in the data set with MRSA 10178 (Staphylococcus aureus, MRSA, MRSA 10178, ED control = antibiotic alone in distilled water, read-out: MIC), 6 µg/mL (≈ 14 µM); in the data set on MRSA 10178 (Staphylococcus aureus, MRSA, MRSA 10178, Tween water control = antibiotic alone, read-out: MIC), 4 µg/mL (≈ 9.36 µM).

Turning to `O=C(O)c1cn(C2CC2)c2cc(N3CCNCC3)c(F)cc2c1=O` [Ciprofloxacine, ciprofloxacine, reference compound], the “colonies likely to be resistant mutants” value in [1] is “invaded”; in data set [1] (listed as ciprofloxacine), “many mutants”; in data set [2] it was “numerous”; in [2] (listed as ciprofloxacine) it was “many mutants”.

With `C[C@@H](O)[C@H]1C(=O)N2C(C(=O)O)=C(S[C@@H]3CN[C@H](C(=O)N(C)C)C3)[C@H](C)[C@H]12` [Meropenem, reference compound], the MIC in the data set with Pseudomonas Strain 08132 (setting [8]) came to 12 µg/mL (≈ 31.3 µM); with Pseudomonas Strain 08132 (Pseudomonas, STRAIN08132, ED control = antibiotic alone in distilled water, read-out: MIC), 12 µg/mL (≈ 31.3 µM); against Pseudomonas Strain 08132 (setting [9]), 12 µg/mL (≈ 31.3 µM); in the data set with MSSA 8237 (setting [5]), 0.25 µg/mL (≈ 0.652 µM); in the data set on MSSA 8237 (setting [6]), 0.19 µg/mL (≈ 0.495 µM); with MSSA 8237 (setting [7]), 0.25 µg/mL (≈ 0.652 µM). For the same compound, the results for the MIC with Pseudomonas Strain 08131 (setting [8]), in the data set with Pseudomonas Strain 08131 (setting [10]) and with Pseudomonas Strain 08131 (setting [9]) were 2 µg/mL (≈ 5.22 µM), 1.5 µg/mL (≈ 3.91 µM) and 2 µg/mL (≈ 5.22 µM), respectively.

With `CC1(C)S[C@@H]2[C@H](NC(=O)Cc3ccccc3)C(=O)N2[C@H]1C(=O)O` [Penicillin G, reference compound], the results for the MIC in the data set on MSSA 8237 (setting [8]), in the data set on MSSA 8237 (setting [10]) and in the data set on MSSA 8237 (setting [9]) were 1.5 µg/mL (≈ 4.49 µM), 1 µg/mL (≈ 2.99 µM) and 0.5 µg/mL (≈ 1.5 µM), respectively.

For the compound `CN(C)c1cc(NC(=O)CNC(C)(C)C)c(O)c2c1C[C@H]1C[C@H]3[C@H](N(C)C)C(O)=C(C(N)=O)C(=O)[C@@]3(O)C(O)=C1C2=O` [Tigecycline, reference compound], the MIC with E. Coli Strain 08138 (setting [8]) came out at 0.38 µg/mL (≈ 0.649 µM); against E. Coli Strain 08138 (setting [10]) it was 0.38 µg/mL (≈ 0.649 µM); with E. Coli Strain 08138 (setting [9]) it was 0.38 µg/mL (≈ 0.649 µM); in the data set with MRSA 10178 (MRSA 10178, ED control = antibiotic alone in distilled water) it was 0.125 µg/mL (≈ 0.213 µM); against MRSA 10178 (MRSA 10178, Tween water control = antibiotic alone), 0.125 µg/mL (≈ 0.213 µM); against MRSA 10178 (Staphylococcus aureus, MRSA), 0.125 µg/mL (≈ 0.213 µM). Moreover, the MIC with E. Coli Strain 8150 (setting [8]) was 0.19 µg/mL (≈ 0.324 µM); with E. Coli Strain 8150 (setting [10]), 0.125 µg/mL (≈ 0.213 µM); in the data set on E. Coli Strain 8150 (setting [9]), 0.125 µg/mL (≈ 0.213 µM).

On to `CC1(C)S[C@@H]2[C@H](NC(=O)[C@H](N)c3ccc(O)cc3)C(=O)N2[C@H]1C(=O)O` [amox, amoxicillin, reference compound], for which the minimal inhibitory concentration (MIC) with Staphylococcus was in the range of 0.25 to 32 µg/mL.

`Cc1ccc(C(C)C)cc1O` [carvacrol]: the lowest lethal dose in [3] and in data set [4] was 100 mg/kg in each case.

As to `Clc1ccc(C(Cn2ccnc2)OCc2csc3c(Cl)cccc23)c(Cl)c1` (centres unmarked) [sertaconazole, reference compound], in the data set on candidas, the minimum inhibitory concentration (MIC) fell in the range of 0.06 to 16 µg/mL.
